From ChEMBL document CHEMBL5518193, “Discovery of N-alkyl-N-benzyl thiazoles as novel TRPC antagonists for the treatment of glioblastoma multiforme” (Eur J Med Chem, 2024)

How the values were obtained:
[1] = target: T1, Short transient receptor potential channel 5 (Homo sapiens, UniProt Q9UL62); test: Antagonist activity at TRPC5 (unknown origin) assessed as inhibition of channel activity
T1 sequence (Q9UL62 whole entry): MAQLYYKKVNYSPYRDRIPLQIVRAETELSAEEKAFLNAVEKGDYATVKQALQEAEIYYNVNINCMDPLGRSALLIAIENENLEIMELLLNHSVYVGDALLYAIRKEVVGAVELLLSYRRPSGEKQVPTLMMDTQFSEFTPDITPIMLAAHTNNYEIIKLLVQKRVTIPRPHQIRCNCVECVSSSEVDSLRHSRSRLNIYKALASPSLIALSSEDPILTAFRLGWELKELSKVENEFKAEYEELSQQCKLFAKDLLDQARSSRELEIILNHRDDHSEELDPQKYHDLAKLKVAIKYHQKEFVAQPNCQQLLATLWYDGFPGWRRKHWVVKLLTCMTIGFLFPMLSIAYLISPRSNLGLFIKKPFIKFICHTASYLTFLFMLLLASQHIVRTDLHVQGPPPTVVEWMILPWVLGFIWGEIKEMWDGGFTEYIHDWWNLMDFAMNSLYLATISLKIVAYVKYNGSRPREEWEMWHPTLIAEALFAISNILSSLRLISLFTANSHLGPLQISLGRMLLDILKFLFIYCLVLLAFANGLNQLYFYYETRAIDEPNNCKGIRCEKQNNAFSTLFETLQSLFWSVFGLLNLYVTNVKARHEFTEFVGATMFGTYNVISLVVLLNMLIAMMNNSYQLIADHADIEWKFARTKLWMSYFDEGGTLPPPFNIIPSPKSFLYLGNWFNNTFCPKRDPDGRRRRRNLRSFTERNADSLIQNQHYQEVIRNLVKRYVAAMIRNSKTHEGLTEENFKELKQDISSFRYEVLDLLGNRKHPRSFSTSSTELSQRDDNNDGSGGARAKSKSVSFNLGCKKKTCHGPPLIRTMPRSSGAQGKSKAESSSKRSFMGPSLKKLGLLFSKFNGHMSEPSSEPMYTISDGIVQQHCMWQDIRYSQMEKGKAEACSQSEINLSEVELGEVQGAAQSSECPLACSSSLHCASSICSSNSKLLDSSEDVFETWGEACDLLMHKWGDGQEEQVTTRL

[2] = target: T2, Short transient receptor potential channel 6 (Homo sapiens, UniProt Q9Y210); test: Antagonist activity at TRPC6 (unknown origin) assessed as inhibition of channel activity
T2 sequence (Q9Y210 whole entry): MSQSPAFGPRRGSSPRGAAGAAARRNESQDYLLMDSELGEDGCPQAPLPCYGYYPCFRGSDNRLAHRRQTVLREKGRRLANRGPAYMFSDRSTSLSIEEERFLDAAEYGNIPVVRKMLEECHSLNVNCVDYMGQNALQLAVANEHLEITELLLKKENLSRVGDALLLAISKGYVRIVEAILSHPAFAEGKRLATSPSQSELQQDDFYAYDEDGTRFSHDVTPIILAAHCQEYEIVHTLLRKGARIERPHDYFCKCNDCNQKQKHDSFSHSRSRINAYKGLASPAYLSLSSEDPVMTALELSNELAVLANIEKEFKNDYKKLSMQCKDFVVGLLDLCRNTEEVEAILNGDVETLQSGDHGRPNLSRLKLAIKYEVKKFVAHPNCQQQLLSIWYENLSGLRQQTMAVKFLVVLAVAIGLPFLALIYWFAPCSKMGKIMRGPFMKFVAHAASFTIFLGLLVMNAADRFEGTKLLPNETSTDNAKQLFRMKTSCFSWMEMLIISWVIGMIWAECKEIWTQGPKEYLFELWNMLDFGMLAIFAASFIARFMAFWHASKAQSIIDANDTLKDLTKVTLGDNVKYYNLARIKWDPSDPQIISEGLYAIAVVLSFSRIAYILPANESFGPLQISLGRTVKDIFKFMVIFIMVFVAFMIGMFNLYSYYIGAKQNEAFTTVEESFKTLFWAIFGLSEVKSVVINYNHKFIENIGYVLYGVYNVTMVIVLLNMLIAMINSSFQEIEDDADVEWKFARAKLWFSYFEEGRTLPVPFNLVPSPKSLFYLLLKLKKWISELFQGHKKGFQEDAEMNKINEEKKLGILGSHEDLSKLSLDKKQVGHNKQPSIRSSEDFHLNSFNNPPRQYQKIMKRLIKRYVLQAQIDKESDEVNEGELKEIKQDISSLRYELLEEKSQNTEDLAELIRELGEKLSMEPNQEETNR

`O=C1O/C(=C/Br)CCC1c1cccc2ccccc12` (configuration not stated) [BROMOENOL LACTONE] gave an IC50 [1] of 10.6 µM and an IC50 [2] of 7.2 µM.
